Data from the NIST ThermoML archive (doi:10.1016/j.fluid.2015.04.017).

Experiment: xn = mol fraction of the nth substance listed
Conditions: 101 kPa, Liquid; for viscosity: Concentric cylinders viscometry; for mass density: Vibrating tube method

CCOC(=O)C(C)O (stereo not drawn) [DL-ethyl lactate] + Cc1ccccc1
Conditions | mass density [kg/m3] | viscosity [mPa·s]
288.15 K, x1 = 0.1001 | 887.622 | 0.6897
288.15 K, x1 = 0.2001 | 904.719 | 0.7894
288.15 K, x1 = 0.3 | 921.906 | 0.9136
288.15 K, x1 = 0.4 | 939.168 | 1.06
288.15 K, x1 = 0.4998 | 956.144 | 1.258
288.15 K, x1 = 0.6001 | 973.156 | 1.493
288.15 K, x1 = 0.7 | 990.077 | 1.795
288.15 K, x1 = 0.7999 | 1006.73 | 2.174
288.15 K, x1 = 0.9 | 1023.31 | 2.637
288.15 K, x1 = 1 | 1039.28 | 3.207
293.15 K, x1 = 0.1001 | 882.811 | 0.6502
293.15 K, x1 = 0.2001 | 899.769 | 0.7404
293.15 K, x1 = 0.3 | 916.845 | 0.8468
293.15 K, x1 = 0.4 | 934.015 | 0.9765
293.15 K, x1 = 0.4998 | 950.923 | 1.141
293.15 K, x1 = 0.6001 | 967.906 | 1.344
293.15 K, x1 = 0.7 | 984.738 | 1.597
293.15 K, x1 = 0.7999 | 1001.36 | 1.911
293.15 K, x1 = 0.9 | 1017.91 | 2.29
293.15 K, x1 = 1 | 1033.84 | 2.75
298.15 K, x1 = 0.1001 | 877.99 | 0.6148
298.15 K, x1 = 0.2001 | 894.808 | 0.6896
298.15 K, x1 = 0.3 | 911.77 | 0.7865
298.15 K, x1 = 0.4 | 928.847 | 0.9011
298.15 K, x1 = 0.4998 | 945.727 | 1.043
298.15 K, x1 = 0.6001 | 962.633 | 1.22
298.15 K, x1 = 0.7 | 979.381 | 1.434
298.15 K, x1 = 0.7999 | 995.963 | 1.695
298.15 K, x1 = 0.9 | 1012.47 | 2.01
298.15 K, x1 = 1 | 1028.39 | 2.39
303.15 K, x1 = 0.1001 | 873.16 | 0.5814
303.15 K, x1 = 0.2001 | 889.833 | 0.6488
303.15 K, x1 = 0.3 | 906.687 | 0.7345
303.15 K, x1 = 0.4 | 923.666 | 0.8343
303.15 K, x1 = 0.4998 | 940.433 | 0.9586
303.15 K, x1 = 0.6001 | 957.336 | 1.112
303.15 K, x1 = 0.7 | 974.002 | 1.295
303.15 K, x1 = 0.7999 | 990.547 | 1.517
303.15 K, x1 = 0.9 | 1007.14 | 1.782
303.15 K, x1 = 1 | 1022.92 | 2.097
308.15 K, x1 = 0.1001 | 868.317 | 0.5513
308.15 K, x1 = 0.2001 | 884.843 | 0.6122
308.15 K, x1 = 0.3 | 901.583 | 0.6876
308.15 K, x1 = 0.4 | 918.463 | 0.7756
308.15 K, x1 = 0.4998 | 935.187 | 0.8842
308.15 K, x1 = 0.6001 | 952.011 | 1.017
308.15 K, x1 = 0.7 | 968.604 | 1.176
308.15 K, x1 = 0.7999 | 985.109 | 1.367
308.15 K, x1 = 0.9 | 1001.53 | 1.592
308.15 K, x1 = 1 | 1017.42 | 1.858
313.15 K, x1 = 0.1001 | 863.457 | 0.5218
313.15 K, x1 = 0.2001 | 879.836 | 0.5761
313.15 K, x1 = 0.3 | 896.465 | 0.6439
313.15 K, x1 = 0.4 | 913.246 | 0.7225
313.15 K, x1 = 0.4998 | 929.878 | 0.8182
313.15 K, x1 = 0.6001 | 946.664 | 0.935
313.15 K, x1 = 0.7 | 963.183 | 1.073
313.15 K, x1 = 0.7999 | 979.648 | 1.239
313.15 K, x1 = 0.9 | 996.054 | 1.432
313.15 K, x1 = 1 | 1011.9 | 1.658
318.15 K, x1 = 0.1001 | 858.58 | 0.4943
318.15 K, x1 = 0.2001 | 874.813 | 0.5433
318.15 K, x1 = 0.3 | 891.323 | 0.6042
318.15 K, x1 = 0.4 | 908.008 | 0.6744
318.15 K, x1 = 0.4998 | 924.579 | 0.7599
318.15 K, x1 = 0.6001 | 941.286 | 0.8633
318.15 K, x1 = 0.7 | 957.74 | 0.985
318.15 K, x1 = 0.7999 | 974.163 | 1.13
318.15 K, x1 = 0.9 | 990.49 | 1.296
318.15 K, x1 = 1 | 1006.36 | 1.491
323.15 K, x1 = 0.1001 | 853.686 | 0.4712
323.15 K, x1 = 0.2001 | 869.771 | 0.5163
323.15 K, x1 = 0.3 | 886.165 | 0.5718
323.15 K, x1 = 0.4 | 902.749 | 0.6343
323.15 K, x1 = 0.4998 | 919.234 | 0.7115
323.15 K, x1 = 0.6001 | 935.886 | 0.8038
323.15 K, x1 = 0.7 | 952.282 | 0.912
323.15 K, x1 = 0.7999 | 968.653 | 1.038
323.15 K, x1 = 0.9 | 984.965 | 1.186
323.15 K, x1 = 1 | 1000.79 | 1.349

CCOC(=O)C(C)O (stereo not drawn) [DL-ethyl lactate] + CN1CCCC1=O
Conditions | mass density [kg/m3] | viscosity [mPa·s]
288.15 K, x1 = 0.0999 | 1040.68 | 2.34
288.15 K, x1 = 0.2 | 1041.7 | 2.601
288.15 K, x1 = 0.3001 | 1042.78 | 2.89
288.15 K, x1 = 0.4 | 1043.43 | 3.122
288.15 K, x1 = 0.4997 | 1043.89 | 3.352
288.15 K, x1 = 0.6 | 1043.93 | 3.508
288.15 K, x1 = 0.7002 | 1043.56 | 3.581
288.15 K, x1 = 0.7999 | 1042.82 | 3.567
288.15 K, x1 = 0.8997 | 1041.57 | 3.456
288.15 K, x1 = 1 | 1039.28 | 3.207
293.15 K, x1 = 0.0999 | 1036.17 | 2.125
293.15 K, x1 = 0.2 | 1037.14 | 2.347
293.15 K, x1 = 0.3001 | 1038.17 | 2.585
293.15 K, x1 = 0.4 | 1038.75 | 2.772
293.15 K, x1 = 0.4997 | 1039.12 | 2.952
293.15 K, x1 = 0.6 | 1039.06 | 3.066
293.15 K, x1 = 0.7002 | 1038.56 | 3.11
293.15 K, x1 = 0.7999 | 1037.68 | 3.08
293.15 K, x1 = 0.8997 | 1036.28 | 2.975
293.15 K, x1 = 1 | 1033.84 | 2.75
298.15 K, x1 = 0.0999 | 1031.66 | 1.941
298.15 K, x1 = 0.2 | 1032.59 | 2.132
298.15 K, x1 = 0.3001 | 1033.56 | 2.331
298.15 K, x1 = 0.4 | 1034.06 | 2.482
298.15 K, x1 = 0.4997 | 1034.35 | 2.624
298.15 K, x1 = 0.6 | 1034.17 | 2.706
298.15 K, x1 = 0.7002 | 1033.55 | 2.726
298.15 K, x1 = 0.7999 | 1032.53 | 2.692
298.15 K, x1 = 0.8997 | 1030.98 | 2.591
298.15 K, x1 = 1 | 1028.39 | 2.39
303.15 K, x1 = 0.0999 | 1027.16 | 1.785
303.15 K, x1 = 0.2 | 1028.05 | 1.947
303.15 K, x1 = 0.3001 | 1028.95 | 2.113
303.15 K, x1 = 0.4 | 1029.38 | 2.235
303.15 K, x1 = 0.4997 | 1029.57 | 2.349
303.15 K, x1 = 0.6 | 1029.29 | 2.41
303.15 K, x1 = 0.7002 | 1028.53 | 2.416
303.15 K, x1 = 0.7999 | 1027.37 | 2.378
303.15 K, x1 = 0.8997 | 1025.67 | 2.284
303.15 K, x1 = 1 | 1022.92 | 2.097
308.15 K, x1 = 0.0999 | 1022.66 | 1.646
308.15 K, x1 = 0.2 | 1023.5 | 1.786
308.15 K, x1 = 0.3001 | 1024.34 | 1.927
308.15 K, x1 = 0.4 | 1024.69 | 2.026
308.15 K, x1 = 0.4997 | 1024.79 | 2.116
308.15 K, x1 = 0.6 | 1024.38 | 2.16
308.15 K, x1 = 0.7002 | 1023.5 | 2.156
308.15 K, x1 = 0.7999 | 1022.2 | 2.115
308.15 K, x1 = 0.8997 | 1020.34 | 2.026
308.15 K, x1 = 1 | 1017.42 | 1.858
313.15 K, x1 = 0.0999 | 1018.16 | 1.525
313.15 K, x1 = 0.2 | 1018.95 | 1.646
313.15 K, x1 = 0.3001 | 1019.72 | 1.765
313.15 K, x1 = 0.4 | 1019.99 | 1.845
313.15 K, x1 = 0.4997 | 1020 | 1.918
313.15 K, x1 = 0.6 | 1019.48 | 1.948
313.15 K, x1 = 0.7002 | 1018.46 | 1.937
313.15 K, x1 = 0.7999 | 1017.01 | 1.896
313.15 K, x1 = 0.8997 | 1015 | 1.816
313.15 K, x1 = 1 | 1011.9 | 1.658
318.15 K, x1 = 0.0999 | 1013.66 | 1.417
318.15 K, x1 = 0.2 | 1014.4 | 1.523
318.15 K, x1 = 0.3001 | 1015.1 | 1.625
318.15 K, x1 = 0.4 | 1015.29 | 1.689
318.15 K, x1 = 0.4997 | 1015.19 | 1.748
318.15 K, x1 = 0.6 | 1014.55 | 1.768
318.15 K, x1 = 0.7002 | 1013.4 | 1.751
318.15 K, x1 = 0.7999 | 1011.81 | 1.712
318.15 K, x1 = 0.8997 | 1009.64 | 1.636
318.15 K, x1 = 1 | 1006.36 | 1.491
323.15 K, x1 = 0.0999 | 1009.17 | 1.329
323.15 K, x1 = 0.2 | 1009.85 | 1.422
323.15 K, x1 = 0.3001 | 1010.48 | 1.512
323.15 K, x1 = 0.4 | 1010.58 | 1.563
323.15 K, x1 = 0.4997 | 1010.38 | 1.615
323.15 K, x1 = 0.6 | 1009.62 | 1.62
323.15 K, x1 = 0.7002 | 1008.34 | 1.602
323.15 K, x1 = 0.7999 | 1006.6 | 1.568
323.15 K, x1 = 0.8997 | 1004.28 | 1.492
323.15 K, x1 = 1 | 1000.79 | 1.349
